Data from US20090042883A1, “ANTITUMOR AGENT” (KYOWA HAKKOKOGYO CO., priority 2005, published 2009).

Tests used:
[1] = test system: human lung cancer NCI-H596 cells; assay: Antitumor effect in vivo, mouse model transplanted with human lung cancer NCI-H596 cells; settings: NCI-H596 subcutaneous transplant in BALB/cAJc1-nu mice; 50 mg/kg intravenously twice a day on days 0 to 4; tumor volume to day 17
Description: Using an experimental system in which human lung cancer NCI-H596 cells were transplanted into immunodeficient mice as disease models of solid tumor, the antitumor effect in vivo of Compound 33 was examined.
NCI-H596 cells were cultured and grown in RPMI1640 medium containing 10% fetal calf serum (FCS) in a 5% carbon dioxide incubator at 37° C., and the cultured cells (1×10^7 cells/mouse) were subcutaneously, ventrally transplanted into BALB/cAJc1-nu mice (CLEA Japan). From the mice in which tumors were formed, the tumors were removed. The tumor tissues were cut into small pieces of about 8 mm^3, which were subcutaneously, ventrally transplanted, using a trocar needle, into BALB/cAJc1-nu mice (CLEA Japan) to be used for experiment. Seventeen days after the transplantation, the major axis and minor axis of the tumors subcutaneously grown were measured with slide calipers, and the tumor volume was determined according to the following formula: […]
(§1) At the same time, the body weight of each mouse was measured, and the mice were divided into two groups, i.e., a group to be administered with drugs and a group not to be administered with drugs, such that each group consists of five mice with various weights and tumor volumes. This day was defined as day 0 of the administration test. Drug administration was started in the following manner. […]

[2] = test system: human prostate cancer 22Rv1 cells; assay: Antitumor effect in vivo, mouse model transplanted with human prostate cancer 22Rv1 cells; settings: 22Rv1 subcutaneous transplant in BALB/cAJc1-nu mice; 100 mg/kg intravenously twice a day on days 0 to 4; tumor volume to day 17
Description: Using an experimental system in which human prostate cancer 22Rv1 cells were transplanted into immunodeficient mice as disease models of solid tumor, the antitumor effect in vivo of Compound 33 was examined.
(§2) 22Rv1 cells were cultured and grown in RPMI1640 medium containing 10% fetal calf serum (FCS) in a 5% carbon dioxide incubator at 37° C., and the cultured cells (1×10^7 cells/mouse) were subcutaneously, ventrally transplanted into BALB/cAJc1-nu mice (CLEA Japan). Seventeen days after the transplantation, the major axis and minor axis of the tumors subcutaneously grown were measured with slide calipers, and the tumor volume was determined according to the following formula: […]
as §1

[3] = test system: human chronic myelocytic leukemia K562 cells; assay: Antitumor effect in vivo, mouse model transplanted with human chronic myelocytic leukemia K562 cells; settings: K562 subcutaneous transplant in Fox C.B-17/Icr-scid mice; 100 mg/kg intravenously twice a day on days 0, 1, 2, 7, 8, 9; tumor volume to day 22
Description: Using an experimental system in which human chronic myelocytic leukemia K562 cells were transplanted into immunodeficient mice as disease models of hematopoietic tumor, the antitumor effect in vivo of Compound 33 was examined.
as §2, with “One day before the transplantation of cancer cells, an anti-asialo GM1 antibody was intraabdominally administered to Fox C.B-17/Icr-scidJc1 mice (CLEA Japan) in an amount of 0.3 mg per mouse. K562” for “22Rv1”, “the mice. Ten” for “BALB/cAJc1-nu mice (CLEA Japan). Seventeen”
as §1

CCc1c(O)cc(O)c(C(=O)c2ccc(OC)cc2)c1CC(=O)N(CCO)CCOC [Compound 33]
apparent suppression of tumor growth: antitumor effect in vivo (tumor volume, FIG. 2) [1] | antitumor effect in vivo (tumor volume, FIG. 3) [2] | antitumor effect in vivo (tumor volume, FIG. 1) [3]
